Results reported in ChEMBL document CHEMBL5653631, “A Potent and Selective ULK1 Inhibitor Suppresses Autophagy and Sensitizes Cancer Cells to Nutrient Stress” (iScience, 2018).
One block for each compound: values may come before it.

How the values were obtained:
[1] = molecular target: T1, cGMP-dependent protein kinase 2 (Homo sapiens) (UniProt Q13237); experiment: Inhibition of human recombinant PKG2 at 500 nM in presence of ATP by radiometric assay relative to control
T1 sequence (whole entry): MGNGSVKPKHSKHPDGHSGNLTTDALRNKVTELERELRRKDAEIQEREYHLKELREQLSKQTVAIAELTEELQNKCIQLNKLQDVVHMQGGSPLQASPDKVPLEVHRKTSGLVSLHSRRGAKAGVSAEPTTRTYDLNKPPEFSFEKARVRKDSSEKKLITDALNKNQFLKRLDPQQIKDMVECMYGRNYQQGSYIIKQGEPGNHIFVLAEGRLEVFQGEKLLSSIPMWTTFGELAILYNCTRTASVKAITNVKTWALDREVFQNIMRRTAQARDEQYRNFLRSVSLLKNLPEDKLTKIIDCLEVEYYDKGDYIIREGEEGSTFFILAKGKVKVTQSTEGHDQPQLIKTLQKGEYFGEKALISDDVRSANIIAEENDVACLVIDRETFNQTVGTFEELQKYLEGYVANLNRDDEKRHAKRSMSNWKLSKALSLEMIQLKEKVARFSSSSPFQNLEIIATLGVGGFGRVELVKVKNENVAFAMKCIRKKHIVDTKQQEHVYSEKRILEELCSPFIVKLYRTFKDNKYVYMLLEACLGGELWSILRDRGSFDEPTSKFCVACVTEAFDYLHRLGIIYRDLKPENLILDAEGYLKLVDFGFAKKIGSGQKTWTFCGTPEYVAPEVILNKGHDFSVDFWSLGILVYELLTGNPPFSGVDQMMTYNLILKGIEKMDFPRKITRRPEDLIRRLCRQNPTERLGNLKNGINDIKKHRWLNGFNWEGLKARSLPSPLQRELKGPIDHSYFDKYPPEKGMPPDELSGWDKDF

[2] = molecular target: SRSF protein kinase 2 (Homo sapiens) (UniProt P78362); experiment: Inhibition of human recombinant SRPK2 at 500 nM related to control ULK1
[3] = molecular target: T2, Tyrosine-protein kinase TXK (Homo sapiens) (UniProt P42681); experiment: Inhibition of human recombinant TXK at 40 nM in presence of ATP by radiometric assay relative to control
T2 sequence (whole entry): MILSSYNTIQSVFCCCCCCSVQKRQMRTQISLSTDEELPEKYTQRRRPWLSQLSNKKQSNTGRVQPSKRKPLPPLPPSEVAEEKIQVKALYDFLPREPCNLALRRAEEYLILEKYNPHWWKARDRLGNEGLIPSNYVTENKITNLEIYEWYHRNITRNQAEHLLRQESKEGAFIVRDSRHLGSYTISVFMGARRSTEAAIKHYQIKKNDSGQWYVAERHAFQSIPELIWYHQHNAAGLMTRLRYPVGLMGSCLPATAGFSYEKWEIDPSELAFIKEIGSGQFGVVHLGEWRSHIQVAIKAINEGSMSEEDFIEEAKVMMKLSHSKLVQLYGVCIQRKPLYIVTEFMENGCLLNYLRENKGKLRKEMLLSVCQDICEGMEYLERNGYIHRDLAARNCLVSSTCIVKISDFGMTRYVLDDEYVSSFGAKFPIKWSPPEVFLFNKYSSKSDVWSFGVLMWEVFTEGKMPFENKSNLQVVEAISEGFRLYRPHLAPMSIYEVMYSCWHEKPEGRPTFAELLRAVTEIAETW

[4] = molecular target: Cyclin-dependent kinase 18 (Homo sapiens) (UniProt Q07002); experiment: Inhibition of human recombinant PCTAIRE3 at 40 nM related to control ULK1
[5] = molecular target: Casein kinase II subunit alpha (Homo sapiens) (UniProt P68400); experiment: Inhibition of human recombinant CK2a1 at 15 nM related to control ULK1
[6] = molecular target: T3, Ephrin type-A receptor 3 (Homo sapiens) (UniProt P29320); experiment: Inhibition of human recombinant EphA3 at 15 nM in presence of ATP by radiometric assay relative to control
T3 sequence (whole entry): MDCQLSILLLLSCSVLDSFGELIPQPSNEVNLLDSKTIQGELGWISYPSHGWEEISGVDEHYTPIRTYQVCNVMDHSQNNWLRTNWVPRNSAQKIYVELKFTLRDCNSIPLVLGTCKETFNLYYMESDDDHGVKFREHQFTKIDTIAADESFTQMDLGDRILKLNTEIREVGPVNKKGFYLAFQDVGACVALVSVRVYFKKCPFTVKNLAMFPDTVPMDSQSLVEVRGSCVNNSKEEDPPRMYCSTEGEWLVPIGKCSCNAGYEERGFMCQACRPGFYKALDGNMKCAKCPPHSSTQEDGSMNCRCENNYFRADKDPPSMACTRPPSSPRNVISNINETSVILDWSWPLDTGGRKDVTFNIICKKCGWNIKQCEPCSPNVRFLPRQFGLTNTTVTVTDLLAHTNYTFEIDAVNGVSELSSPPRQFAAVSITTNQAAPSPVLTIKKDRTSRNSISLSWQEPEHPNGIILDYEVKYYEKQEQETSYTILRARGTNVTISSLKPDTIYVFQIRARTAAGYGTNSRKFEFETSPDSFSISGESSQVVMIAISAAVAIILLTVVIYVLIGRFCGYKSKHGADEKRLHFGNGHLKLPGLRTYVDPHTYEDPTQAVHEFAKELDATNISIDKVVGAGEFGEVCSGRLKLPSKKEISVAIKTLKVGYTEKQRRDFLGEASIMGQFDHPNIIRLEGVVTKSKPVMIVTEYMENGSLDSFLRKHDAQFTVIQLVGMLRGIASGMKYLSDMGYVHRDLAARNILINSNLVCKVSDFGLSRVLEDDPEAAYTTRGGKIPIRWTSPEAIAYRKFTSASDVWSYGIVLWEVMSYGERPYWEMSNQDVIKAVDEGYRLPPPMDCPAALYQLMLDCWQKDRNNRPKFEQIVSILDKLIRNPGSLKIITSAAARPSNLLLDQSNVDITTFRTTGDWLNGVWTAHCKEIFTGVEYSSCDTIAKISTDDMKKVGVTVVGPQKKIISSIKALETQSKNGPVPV

[7] = molecular target: Non-receptor tyrosine-protein kinase TYK2 (Homo sapiens) (UniProt P29597); experiment: Inhibition of human recombinant TYK2 at 15 nM in presence of ATP by radiometric assay relative to control
Non-receptor tyrosine-protein kinase TYK2 (Homo sapiens), sequence (P29597 whole entry): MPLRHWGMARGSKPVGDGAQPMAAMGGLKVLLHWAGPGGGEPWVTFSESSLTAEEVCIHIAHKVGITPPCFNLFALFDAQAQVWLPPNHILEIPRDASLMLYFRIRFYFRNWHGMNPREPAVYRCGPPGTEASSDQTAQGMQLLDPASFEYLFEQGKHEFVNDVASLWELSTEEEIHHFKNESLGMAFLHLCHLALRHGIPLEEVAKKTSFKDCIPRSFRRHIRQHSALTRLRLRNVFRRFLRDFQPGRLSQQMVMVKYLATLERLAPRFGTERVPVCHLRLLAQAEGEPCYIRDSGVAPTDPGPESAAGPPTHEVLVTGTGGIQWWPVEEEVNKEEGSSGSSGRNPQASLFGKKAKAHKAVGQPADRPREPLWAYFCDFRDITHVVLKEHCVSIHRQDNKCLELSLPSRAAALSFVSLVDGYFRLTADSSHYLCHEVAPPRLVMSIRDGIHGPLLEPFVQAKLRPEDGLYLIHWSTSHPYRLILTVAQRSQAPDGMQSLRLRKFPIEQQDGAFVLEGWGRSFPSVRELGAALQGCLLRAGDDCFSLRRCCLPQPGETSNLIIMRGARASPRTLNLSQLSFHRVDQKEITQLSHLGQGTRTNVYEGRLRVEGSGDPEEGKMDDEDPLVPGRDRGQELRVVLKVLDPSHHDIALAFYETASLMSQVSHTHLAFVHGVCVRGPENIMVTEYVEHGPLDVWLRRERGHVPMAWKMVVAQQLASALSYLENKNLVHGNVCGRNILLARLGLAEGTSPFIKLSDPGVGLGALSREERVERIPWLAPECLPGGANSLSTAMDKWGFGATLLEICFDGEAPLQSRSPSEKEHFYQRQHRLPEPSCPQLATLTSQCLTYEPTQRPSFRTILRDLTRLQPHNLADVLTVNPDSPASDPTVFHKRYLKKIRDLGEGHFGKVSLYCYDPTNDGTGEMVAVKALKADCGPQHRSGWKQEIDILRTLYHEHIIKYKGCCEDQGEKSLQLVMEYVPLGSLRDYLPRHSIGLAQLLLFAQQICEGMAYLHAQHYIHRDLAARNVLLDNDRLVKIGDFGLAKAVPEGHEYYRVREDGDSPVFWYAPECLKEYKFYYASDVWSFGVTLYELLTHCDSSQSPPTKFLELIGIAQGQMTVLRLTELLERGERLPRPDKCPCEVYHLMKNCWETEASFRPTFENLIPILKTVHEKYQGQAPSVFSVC

SRSF protein kinase 2 (Homo sapiens), sequence (P78362 whole entry, looked up): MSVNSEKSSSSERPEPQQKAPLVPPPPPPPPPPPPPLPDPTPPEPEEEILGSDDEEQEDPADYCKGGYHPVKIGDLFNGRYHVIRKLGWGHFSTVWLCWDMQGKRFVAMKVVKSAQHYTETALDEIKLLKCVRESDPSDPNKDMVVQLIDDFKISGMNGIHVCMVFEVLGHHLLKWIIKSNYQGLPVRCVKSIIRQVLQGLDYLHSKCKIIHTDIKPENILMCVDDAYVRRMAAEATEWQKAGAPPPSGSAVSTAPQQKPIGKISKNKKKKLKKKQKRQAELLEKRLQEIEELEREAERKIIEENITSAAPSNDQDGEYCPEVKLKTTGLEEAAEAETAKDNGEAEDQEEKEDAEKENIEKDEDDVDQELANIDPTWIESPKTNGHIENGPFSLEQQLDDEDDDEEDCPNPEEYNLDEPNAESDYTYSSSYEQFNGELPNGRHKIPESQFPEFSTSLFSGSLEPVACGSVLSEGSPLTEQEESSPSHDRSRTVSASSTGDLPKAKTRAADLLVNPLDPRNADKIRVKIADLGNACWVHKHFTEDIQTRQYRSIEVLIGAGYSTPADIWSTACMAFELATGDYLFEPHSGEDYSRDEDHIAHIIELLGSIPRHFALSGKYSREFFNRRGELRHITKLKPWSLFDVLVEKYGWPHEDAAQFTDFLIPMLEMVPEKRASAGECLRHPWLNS
Casein kinase II subunit alpha (Homo sapiens), sequence (P68400 whole entry, looked up): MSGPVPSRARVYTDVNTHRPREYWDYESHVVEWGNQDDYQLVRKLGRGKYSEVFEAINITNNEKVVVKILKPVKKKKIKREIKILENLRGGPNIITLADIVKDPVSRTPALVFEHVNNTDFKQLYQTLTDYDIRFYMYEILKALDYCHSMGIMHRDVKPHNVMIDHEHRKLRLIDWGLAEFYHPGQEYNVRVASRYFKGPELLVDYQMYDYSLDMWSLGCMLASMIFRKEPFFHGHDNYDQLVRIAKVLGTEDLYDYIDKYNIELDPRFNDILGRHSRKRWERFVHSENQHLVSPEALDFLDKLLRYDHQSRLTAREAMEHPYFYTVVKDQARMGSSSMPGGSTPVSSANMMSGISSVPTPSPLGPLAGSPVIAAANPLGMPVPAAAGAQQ
Cyclin-dependent kinase 18 (Homo sapiens), sequence (Q07002 whole entry): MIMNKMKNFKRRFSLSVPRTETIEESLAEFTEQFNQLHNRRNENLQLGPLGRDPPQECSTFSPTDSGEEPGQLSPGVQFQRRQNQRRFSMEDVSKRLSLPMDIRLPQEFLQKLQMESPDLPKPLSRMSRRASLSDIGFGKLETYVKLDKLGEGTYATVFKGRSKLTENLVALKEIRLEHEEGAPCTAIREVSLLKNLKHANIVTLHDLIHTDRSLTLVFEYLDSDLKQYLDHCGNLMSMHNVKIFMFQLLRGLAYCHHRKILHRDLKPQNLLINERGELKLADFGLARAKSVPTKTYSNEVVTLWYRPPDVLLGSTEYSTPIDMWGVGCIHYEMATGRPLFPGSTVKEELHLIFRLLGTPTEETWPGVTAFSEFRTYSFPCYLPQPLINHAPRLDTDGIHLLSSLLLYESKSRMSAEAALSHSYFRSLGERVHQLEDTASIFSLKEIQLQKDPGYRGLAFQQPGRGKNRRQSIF

- inhibition [1]: 2%
- fold change (FC) [2]: 0.07
SMILES: CNC(=O)c1ccccc1Oc1nc(Nc2cc(OC)c(OC)c(OC)c2)ncc1Br

- inhibition [3]: 13%
- fold change (FC) [4]: 0.42
SMILES: O=C(N[C@@H](C1CC1)C(F)(F)F)c1cc(-c2cnn3cc(-c4ccc(F)cc4)cnc23)cs1

- fold change (FC) [5]: 0
- inhibition [6]: 3%
- inhibition [7]: 2%
SMILES: CC(C)[C@H](NC(=O)c1cc(-c2cnn3cc(-c4ccc(OCCN5CCCCC5)cc4)cnc23)cs1)C(F)(F)F
